Measured values taken from patent US9717748B2, “Compositions and methods for treating an infection” (CMPD LICENSING, LLC, priority 2015, dated 2017).

Assays:
Enterobacter cloacae = assay: Expected efficacy of antibiotic agents; conditions: Gram: neg
Enterococcus faecalis = assay: Expected efficacy of antibiotic agents; conditions: Gram: pos
Bacteroides fragilis = assay: Expected efficacy of antibiotic agents; conditions: Gram: anaer
Moraxella catarrhalis = assay: Expected efficacy of antibiotic agents; conditions: Gram: neg
Citrobacter diversus = assay: Expected efficacy of antibiotic agents; conditions: Gram: neg
Enterococcus faecium = assay: Expected efficacy of antibiotic agents; conditions: Gram: pos
Proteus vulgaris = assay: Expected efficacy of antibiotic agents; conditions: Gram: neg
Mycoplasma pneumoniae = assay: Expected efficacy of antibiotic agents; conditions: Gram: n/a
Legionella pneumophila = conditions: Gram: neg
[1] = test system: Staphylococcus epidermidis; assay: Expected efficacy of antibiotic agents; conditions: Gram: pos
Klebsiella oxytoca = assay: Expected efficacy of antibiotic agents; conditions: Gram: neg
Chlamydia trachomatis = assay: Expected efficacy of antibiotic agents; conditions: Gram: n/a
[2] = test system: Klebsiella (Calymmato-bacterium) granulomatis; assay: Expected efficacy of antibiotic agents; conditions: Gram: neg
Acinetobacter lwoffii = assay: Expected efficacy of antibiotic agents; conditions: Gram: neg
Citrobacter freundii = assay: Expected efficacy of antibiotic agents; conditions: Gram: neg
Streptococcus pyogenes = assay: Expected efficacy of antibiotic agents; conditions: Gram: pos
Providencia rettgeri = assay: Expected efficacy of antibiotic agents; conditions: Gram: neg
Escherichia coli = assay: Expected efficacy of antibiotic agents; conditions: Gram: neg
Corynebacterium jeikeium = assay: Expected efficacy of antibiotic agents; conditions: Gram: pos
Pseudomonas aeruginosa = assay: Expected efficacy of antibiotic agents; conditions: Gram: neg
Enterobacter sakazakii = assay: Expected efficacy of antibiotic agents; conditions: Gram: neg
Clostridium difficile = assay: Expected efficacy of antibiotic agents; conditions: Gram: anaer
Chlamydia pneumoniae = assay: Expected efficacy of antibiotic agents; conditions: Gram: n/a
Providencia stuartii = assay: Expected efficacy of antibiotic agents; conditions: Gram: neg
Proteus mirabilis = assay: Expected efficacy of antibiotic agents; conditions: Gram: neg
Morganella morganii = assay: Expected efficacy of antibiotic agents; conditions: Gram: neg
Clostridium perfringens = conditions: Gram: anaer
Enterobacter aerogenes = assay: Expected efficacy of antibiotic agents; conditions: Gram: neg
Campylobacter jejuni = assay: Expected efficacy of antibiotic agents; conditions: Gram: neg
Klebsiella pneumoniae = assay: Expected efficacy of antibiotic agents; conditions: Gram: neg
[3] = test system: Methicillin resistant staphaureus (MRSA); assay: Expected efficacy of antibiotic agents; conditions: Gram: pos
Francisella tularensis = conditions: Gram: neg
Brucella species = conditions: Gram: neg
Streptococcus agalactiae = assay: Expected efficacy of antibiotic agents; conditions: Gram: pos
Chlamydia psittaci = conditions: Gram: n/a
[4] = test system: Acinetobacter calcoaceticus; assay: Expected efficacy of antibiotic agents; conditions: Gram: neg
Pseudomonas fluorescens = assay: Expected efficacy of antibiotic agents; conditions: Gram: neg
[5] = test system: Staphylococcus aureus (MSSA); assay: Expected efficacy of antibiotic agents; conditions: Gram: pos
Acinetobacter baumannii = assay: Expected efficacy of antibiotic agents; conditions: Gram: neg
Serratia marcescens = assay: Expected efficacy of antibiotic agents; conditions: Gram: neg
[6] = test system: Viridans group streptococci; assay: Expected efficacy of antibiotic agents; conditions: Gram: pos
Haemophilus ducreyi = assay: Expected efficacy of antibiotic agents; conditions: Gram: neg
Vibrio cholerae = assay: Expected efficacy of antibiotic agents; conditions: Gram: neg
Neisseria gonorrhoeae = assay: Expected efficacy of antibiotic agents; conditions: Gram: neg
Shigella dysenteriae = assay: Expected efficacy of antibiotic agents; conditions: Gram: neg
Bordetella pertussis = assay: Expected efficacy of antibiotic agents; conditions: Gram: neg
Rickettsiae = conditions: Gram: neg
Diphtheroids = assay: Expected efficacy of antibiotic agents; conditions: Gram: pos
[7] = test system: Corynebacterium urealyticum; assay: Expected efficacy of antibiotic agents; conditions: Gram: pos
Salmonella typhi = assay: Expected efficacy of antibiotic agents; conditions: Gram: neg
Peptostreptococcus = assay: Expected efficacy of antibiotic agents; conditions: Gram: pos
Shigella flexneri = assay: Expected efficacy of antibiotic agents; conditions: Gram: neg
Yersinia pestis = conditions: Gram: neg
Shigella sonnei = assay: Expected efficacy of antibiotic agents; conditions: Gram: neg
[8] = test system: Haemophilus parainfluenzae; assay: Expected efficacy of antibiotic agents; conditions: Gram: neg

In the case of Azithromycin, the “Expected efficacy against Enterobacter cloacae” value (Enterobacter cloacae) is reported as “no”, the “Expected efficacy against Enterococcus faecalis” value (Enterococcus faecalis) is reported as “no” and the “Expected efficacy against Bacteroides fragilis” value (Bacteroides fragilis) is reported as “no”. For the same compound, the “Expected efficacy against Moraxella catarrhalis” value (Moraxella catarrhalis) was “yes”, the “Expected efficacy against Citrobacter diversus” value (Citrobacter diversus) was “no” and the “Expected efficacy against Enterococcus faecium” value (Enterococcus faecium) was “no”. For the same compound, the “Expected efficacy against Proteus vulgaris” value (Proteus vulgaris) was “no”, the “Expected efficacy against Mycoplasma pneumoniae” value (Mycoplasma pneumoniae) was “yes” and the “Expected efficacy against Legionella pneumophila” value (Legionella pneumophila) was “yes”. For the same compound, the “Expected efficacy against Staphylococcus epidermidis” value [1] was “yes”, the “Expected efficacy against Klebsiella oxytoca” value (Klebsiella oxytoca) was “no” and the “Expected efficacy against Chlamydia trachomatis” value (Chlamydia trachomatis) was “yes”. For the same compound, the “Expected efficacy against Klebsiella (Calymmato-bacterium) granulomatis” value [2] was “no”, the “Expected efficacy against Acinetobacter lwoffii” value (Acinetobacter lwoffii) was “no” and the “Expected efficacy against Citrobacter freundii” value (Citrobacter freundii) was “no”. The “Expected efficacy against Streptococcus pyogenes” value (Streptococcus pyogenes) was “yes”, the “Expected efficacy against Providencia rettgeri” value (Providencia rettgeri) was “no” and the “Expected efficacy against Escherichia coli” value (Escherichia coli) was “no”. The “Expected efficacy against Corynebacterium jeikeium” value (Corynebacterium jeikeium) was “no”, the “Expected efficacy against Pseudomonas aeruginosa” value (Pseudomonas aeruginosa) was “no” and the “Expected efficacy against Enterobacter sakazakii” value (Enterobacter sakazakii) was “no”. The “Expected efficacy against Clostridium difficile” value (Clostridium difficile) was “no”, the “Expected efficacy against Chlamydia pneumoniae” value (Chlamydia pneumoniae) was “yes” and the “Expected efficacy against Providencia stuartii” value (Providencia stuartii) was “no”. The “Expected efficacy against Proteus mirabilis” value (Proteus mirabilis) was “no”, the “Expected efficacy against Morganella morganii” value (Morganella morganii) was “no” and the “Expected efficacy against Clostridium perfringens” value (Clostridium perfringens) was “no”. For the same compound, the “Expected efficacy against Enterobacter aerogenes” value (Enterobacter aerogenes) was “no”, the “Expected efficacy against Campylobacter jejuni” value (Campylobacter jejuni) was “yes” and the “Expected efficacy against Klebsiella pneumoniae” value (Klebsiella pneumoniae) was “no”. The “Expected efficacy against Methicillin resistant staphaureus (MRSA)” value [3] was “no”, the “Expected efficacy against Francisella tularensis” value (Francisella tularensis) was “no” and the “Expected efficacy against Brucella species” value (Brucella species) was “no”. For the same compound, the “Expected efficacy against Streptococcus agalactiae” value (Streptococcus agalactiae) was “yes”, the “Expected efficacy against Chlamydia psittaci” value (Chlamydia psittaci) was “yes” and the “Expected efficacy against Acinetobacter calcoaceticus” value [4] was “no”. For the same compound, the “Expected efficacy against Pseudomonas fluorescens” value (Pseudomonas fluorescens) was “no”, the “Expected efficacy against Staphylococcus aureus (MSSA)” value [5] was “yes” and the “Expected efficacy against Acinetobacter baumannii” value (Acinetobacter baumannii) was “no”. The “Expected efficacy against Serratia marcescens” value (Serratia marcescens) was “no”.

For `CO/N=C(\C(=O)N[C@@H]1C(=O)N2C(C(=O)O)=C(CSc3nc(=O)c(=O)[nH]n3C)CS[C@H]12)c1csc(N)n1` [Ceftriaxone], the “Expected efficacy against Enterobacter cloacae” value (Enterobacter cloacae) was “yes”, the “Expected efficacy against Viridans group streptococci” value [6] was “yes” and the “Expected efficacy against Enterococcus faecalis” value (Enterococcus faecalis) was “no”. For the same compound, the “Expected efficacy against Bacteroides fragilis” value (Bacteroides fragilis) was “yes”, the “Expected efficacy against Moraxella catarrhalis” value (Moraxella catarrhalis) was “yes” and the “Expected efficacy against Enterococcus faecium” value (Enterococcus faecium) was “no”. For the same compound, the “Expected efficacy against Mycoplasma pneumoniae” value (Mycoplasma pneumoniae) was “no”, the “Expected efficacy against Haemophilus ducreyi” value (Haemophilus ducreyi) was “yes” and the “Expected efficacy against Legionella pneumophila” value (Legionella pneumophila) was “no”. The “Expected efficacy against Staphylococcus epidermidis” value [1] was “yes”, the “Expected efficacy against Chlamydia trachomatis” value (Chlamydia trachomatis) was “no” and the “Expected efficacy against Vibrio cholerae” value (Vibrio cholerae) was “no”. For the same compound, the “Expected efficacy against Klebsiella (Calymmato-bacterium) granulomatis” value [2] was “yes”, the “Expected efficacy against Acinetobacter lwoffii” value (Acinetobacter lwoffii) was “no” and the “Expected efficacy against Neisseria gonorrhoeae” value (Neisseria gonorrhoeae) was “yes”. For the same compound, the “Expected efficacy against Shigella dysenteriae” value (Shigella dysenteriae) was “yes”, the “Expected efficacy against Bordetella pertussis” value (Bordetella pertussis) was “no” and the “Expected efficacy against Citrobacter freundii” value (Citrobacter freundii) was “yes”. The “Expected efficacy against Streptococcus pyogenes” value (Streptococcus pyogenes) was “yes”, the “Expected efficacy against Rickettsiae” value (Rickettsiae) was “no” and the “Expected efficacy against Providencia rettgeri” value (Providencia rettgeri) was “yes”. For the same compound, the “Expected efficacy against Corynebacterium jeikeium” value (Corynebacterium jeikeium) was “no”, the “Expected efficacy against Pseudomonas aeruginosa” value (Pseudomonas aeruginosa) was “no” and the “Expected efficacy against Diphtheroids” value (Diphtheroids) was “no”. The “Expected efficacy against Enterobacter sakazakii” value (Enterobacter sakazakii) was “yes”, the “Expected efficacy against Clostridium difficile” value (Clostridium difficile) was “no” and the “Expected efficacy against Chlamydia pneumoniae” value (Chlamydia pneumoniae) was “no”. For the same compound, the “Expected efficacy against Providencia stuartii” value (Providencia stuartii) was “yes”, the “Expected efficacy against Corynebacterium urealyticum” value [7] was “no” and the “Expected efficacy against Salmonella typhi” value (Salmonella typhi) was “yes”. For the same compound, the “Expected efficacy against Proteus mirabilis” value (Proteus mirabilis) was “yes”, the “Expected efficacy against Campylobacter jejuni” value (Campylobacter jejuni) was “no” and the “Expected efficacy against Klebsiella pneumoniae” value (Klebsiella pneumoniae) was “yes”. For the same compound, the “Expected efficacy against Peptostreptococcus” value (Peptostreptococcus) was “yes”, the “Expected efficacy against Shigella flexneri” value (Shigella flexneri) was “yes” and the “Expected efficacy against Methicillin resistant staphaureus (MRSA)” value [3] was “no”. The “Expected efficacy against Francisella tularensis” value (Francisella tularensis) was “no”, the “Expected efficacy against Streptococcus agalactiae” value (Streptococcus agalactiae) was “yes” and the “Expected efficacy against Yersinia pestis” value (Yersinia pestis) was “no”. The “Expected efficacy against Chlamydia psittaci” value (Chlamydia psittaci) was “no”, the “Expected efficacy against Shigella sonnei” value (Shigella sonnei) was “yes” and the “Expected efficacy against Acinetobacter calcoaceticus” value [4] was “no”. The “Expected efficacy against Staphylococcus aureus (MSSA)” value [5] was “yes”, the “Expected efficacy against Acinetobacter baumannii” value (Acinetobacter baumannii) was “no” and the “Expected efficacy against Haemophilus parainfluenzae” value [8] was “yes”.
